Key:
[1] = molecular target: T1, human EAAT3 (Homo sapiens, UniProt P43005); test: FLIPR Membrane Potential (FMP) assay, antagonist potency at human EAAT3; assay type: cell-based; conditions: HEK-293 cells stably expressing human EAAT3; L-glutamate as agonist at EC80; antagonist applied 15 min before agonist; Kb by Cheng-Prusoff from IC50
T1 construct: expressed in transfected cells
T1 sequence (P43005 1-524): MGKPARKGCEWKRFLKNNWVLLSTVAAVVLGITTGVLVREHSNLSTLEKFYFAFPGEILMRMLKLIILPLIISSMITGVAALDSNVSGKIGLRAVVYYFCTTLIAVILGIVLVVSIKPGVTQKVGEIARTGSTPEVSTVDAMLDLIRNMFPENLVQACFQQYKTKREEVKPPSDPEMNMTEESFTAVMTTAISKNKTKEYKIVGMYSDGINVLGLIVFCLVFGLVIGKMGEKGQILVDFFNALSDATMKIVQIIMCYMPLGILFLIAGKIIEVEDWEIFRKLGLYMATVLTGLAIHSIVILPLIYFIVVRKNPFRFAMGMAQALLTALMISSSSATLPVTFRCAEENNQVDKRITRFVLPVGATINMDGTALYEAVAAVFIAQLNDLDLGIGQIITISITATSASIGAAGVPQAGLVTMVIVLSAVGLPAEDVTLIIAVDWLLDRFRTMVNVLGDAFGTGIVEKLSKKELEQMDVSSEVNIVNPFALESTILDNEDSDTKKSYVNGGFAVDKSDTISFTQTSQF
Description: The FLIPR Membrane Potential (FMP) Assay
HEK-293 cells stably expressing human EAAT3 were seeded at 55 000 cells/well in growth medium (DMEM glutamate free (Invitrogen 11960-044), 1% Pen Strep (10 ml/1 GIBCO BRL N°15140-023), 10% FCS non dialysed heat inactivated, 5 mg/l puromycin) in poly-D-lysine treated 96-well black microtiter plates with clear-bottom. After 24 h, the growth medium was removed and 100 μl/well of Krebs buffer (140 mM NaCl, 4.7 mM KCl, 2.5 mM CaCl2, 1.2 mM MgCl2, 11 mM HEPES, 10 mM D-glucose, pH=7.4) added. The cells were then loaded by adding 100 μl/well FMP assay dye (FLIPR Membrane Potential assay reagent, Molecular Devices). The 96-well plates were then incubated at 37° C. for 1 h. The depolarization of the cells will cause more dye to enter in the cells, where it will bind to intracellular proteins and lipids and cause an increase in the fluorescence signal. Antagonist potency at human EAAT3 was determined by using L-glutamate as agonist at a concentration which gives 80% of the maximum response. The antagonists were applied 15 min before the application of the agonist L-glutamate. The assays were performed at room temperature and measurements done by using a Fluorometric Imaging Plate Reader (FLIPR, Molecular Devices) and filter #2. Responses were measured as peak increase in fluorescence minus basal (i.e. fluorescence without addition of L-glutamate). Kb was determined using the Cheng-Prusoff equation Kb=IC50/[1+(A/EC50)], where IC50 is the concentration of the antagonist producing 50% inhibition, A is the concentration of the agonist against which the IC50 is being determined (at EC80) and EC50 is the concentration of the agonist producing 50% […].

Row | melting point | Kb [1] | SMILES
1 | 95 °C | 210 nM | CC(C)c1nccn1-c1cc(C(=O)NC(C)(C)C)cc(-c2ccc(C3CC3)cc2)c1 [Example 25, N-tert-Butyl-3-(4-cyclopropylphenyl)-5-(2-propan-2-ylimidazol-1-yl)-benzamide]
2 | 104 °C | 130 nM | Cc1ccc(-c2cc(C(=O)NC(C)(C)C)cc(-n3ccnc3C(C)C)c2)cc1 [Example 26, N-tert-Butyl-3-(4-methylphenyl)-5-(2-propan-2-ylimidazol-1-yl)-benzamide]
3 | 98.5 °C | 280 nM | Cc1cc(-c2cc(C(=O)NC(C)(C)C)cc(-n3ccnc3C(C)C)c2)ccc1F [Example 27, N-tert-Butyl-3-(4-fluoro-3-methylphenyl)-5-(2-propan-2-ylimidazol-1-yl)-benzamide]
4 | 101 °C | 160 nM | CC(C)(C)NC(=O)c1cc(-c2ccc(Cl)cc2)cc(-n2ccnc2C(C)(C)C)c1 [Example 28, N-tert-Butyl-3-(2-tert-butylimidazol-1-yl)-5-(4-chlorophenyl)-benzamide]
5 | 114 °C | 150 nM | CC(C)(C)NC(=O)c1cc(-c2ccc(Cl)cc2)cc(-n2ccnc2CO)c1 [Example 29, N-tert-Butyl-3-(4-chlorophenyl)-5-[2-(hydroxymethyl)-imidazol-1-yl]-benzamide]
6 | 76 °C | 160 nM | CCC(C)(C)NC(=O)c1cc(-c2ccc(Cl)cc2)cc(-n2ccnc2CO)c1 [Example 30, 3-(4-Chlorophenyl)-5-[2-(hydroxymethyl)-imidazol-1-yl]-N-(2-methylbutan-2-yl)-benzamide]
7 | 189.5 °C | 410 nM | CCC(C)(C)NC(=O)c1cc(-c2ccc(Cl)cc2)cc(-n2ccnc2C(C)(C)C)c1 [Example 31, 3-(2-tert-Butylimidazol-1-yl)-5-(4-chlorophenyl)-N-(2-methylbutan-2-yl)-benzamide]
8 | 218 °C | 180 nM | CC(C)(C)NC(=O)c1cc(-c2ccc(F)cc2)cc(-n2ccnc2C(C)(C)C)c1 [Example 32, N-tert-Butyl-3-(2-tert-butylimidazol-1-yl)-5-(4-fluorophenyl)-benzamide]
9 | 225 °C | 290 nM | CC(C)(C)NC(=O)c1cc(-c2ccc(C(F)(F)F)cc2)cc(-n2ccnc2C(C)(C)C)c1 [Example 33, N-tert-Butyl-3-(2-tert-butylimidazol-1-yl)-5-[4-(trifluoromethyl)-phenyl]-benzamide]
10 | 183 °C | 100 nM | CC(C)(C)NC(=O)c1cc(-c2ccc(F)cc2)cc(-n2ccnc2C(C)(C)O)c1 [Example 34, N-tert-Butyl-3-(4-fluorophenyl)-5-[2-(2-hydroxypropan-2-yl)-imidazol-1-yl]-benzamide]
11 | 173.5 °C | 210 nM | CC(C)(C)NC(=O)c1cc(-c2ccc(C(F)(F)F)cc2)cc(-n2ccnc2C(C)(C)O)c1 [Example 35, N-tert-Butyl-3-[2-(2-hydroxypropan-2-yl)-imidazol-1-yl]-5-[4-(trifluoromethyl)-phenyl]-benzamide]
12 | 87 °C | 330 nM | CCC(C)(C)NC(=O)c1cc(-c2ccc(Cl)cc2)cc(-n2ccnc2C(C)C)c1 [Example 36, 3-(4-Chlorophenyl)-N-(2-methylbutan-2-yl)-5-(2-propan-2-ylimidazol-1-yl)-benzamide]
13 | 85 °C | 170 nM | CCC(C)(C)NC(=O)c1cc(-c2ccc(Cl)cc2)cc(-n2ccnc2C2CC2)c1 [Example 37, 3-(4-Chlorophenyl)-5-(2-cyclopropylimidazol-1-yl)-N-(2-methylbutan-2-yl)-benzamide]
14 | 78 °C | 70 nM | CC(C)(C)NC(=O)c1cc(-c2ccc(Cl)cc2)cc(-n2ccnc2C(C)(C)O)c1 [Example 40, N-tert-Butyl-3-(4-chlorophenyl)-5-[2-(2-hydroxypropan-2-yl)-imidazol-1-yl]-benzamide]
15 | 97 °C | 540 nM | CC(C)c1nccn1-c1cc(C(=O)NC(C)(C)CO)cc(-c2ccc(Cl)cc2)c1 [Example 41, 3-(4-Chlorophenyl)-N-(1-hydroxy-2-methylpropan-2-yl)-5-(2-propan-2-yl-imidazol-1-yl)-benzamide]
16 | 99 °C | 170 nM | CC(C)(CO)NC(=O)c1cc(-c2ccc(Cl)cc2)cc(-n2ccnc2C2CC2)c1 [Example 42, 3-(4-Chlorophenyl)-5-(2-cyclopropylimidazol-1-yl)-N-(1-hydroxy-2-methylpropan-2-yl)-benzamide]
17 | 234 °C | 80 nM | CC(C)(CO)NC(=O)c1cc(-c2ccc(Cl)cc2)cc(-n2ccnc2C(C)(C)C)c1 [Example 43, 3-(2-tert-Butylimidazol-1-yl)-5-(4-chlorophenyl)-N-(1-hydroxy-2-methylpropan-2-yl)-benzamide]

Source: patent publication US10029989B2, “Imidazole derivatives” (Hoffmann-La Roche Inc., priority 2015, dated 2018)
